In US20250270209A1 (INTERLINE THERAPEUTICS, INC., priority 2022, published 2025) one finds IC50 data, which are given here for 23 molecules.

The target in one assay is LRRK2 wild type enzyme (Homo sapiens, UniProt Q5S007). Briefly: Biochemical Assay: LRRK2 TR-FRET (LanthaScreen) kinase assay with LRRKtide substrate. Particulars: LRRK2 Inhibition, Table 8. A digest of the protocol:
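Human wild-type LRRK2 (3 nM) preincubated 15 min with compound (11-point, 3-fold, top 10 μM), then reacted 120 min at 23 °C with 400 nM LRRKtide and 25 μM ATP, pH 8.0. Stopped with EDTA; Tb-anti-pLRRKtide TR-FRET read after 30 min.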

Assay [1] addresses T1, wild type LRRK2 overexpressed in recombinant HEK-293T cells (Homo sapiens, UniProt Q5S007).
T1 construct: host or cells: HEK293T (transient transfection with pCMV-LRRK2 WT plasmid)
Put plainly: pS935 LRRK2 Cell Assay (HTRF, phospho-LRRK2 Ser935). Type of assay: cell-based. Particulars: LRRK2 Inhibition, Table 8, 2 hours compound incubation. A digest of the protocol: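 HEK-293T cells transiently transfected with wild-type LRRK2 for 24 h, plated overnight, then treated 2 h at 37° C with compound (top 10 μM, 3-fold, 9 doses, duplicates, 0.2% DMSO). Lysates probed overnight at 23° C by sandwich HTRF for pSer935; 665/615 nm ratio read.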
(In general: In TR-FRET formats the signal depends on donor and acceptor labels being close together.)

Sequence of LRRK2 wild type enzyme (Q5S007 whole entry): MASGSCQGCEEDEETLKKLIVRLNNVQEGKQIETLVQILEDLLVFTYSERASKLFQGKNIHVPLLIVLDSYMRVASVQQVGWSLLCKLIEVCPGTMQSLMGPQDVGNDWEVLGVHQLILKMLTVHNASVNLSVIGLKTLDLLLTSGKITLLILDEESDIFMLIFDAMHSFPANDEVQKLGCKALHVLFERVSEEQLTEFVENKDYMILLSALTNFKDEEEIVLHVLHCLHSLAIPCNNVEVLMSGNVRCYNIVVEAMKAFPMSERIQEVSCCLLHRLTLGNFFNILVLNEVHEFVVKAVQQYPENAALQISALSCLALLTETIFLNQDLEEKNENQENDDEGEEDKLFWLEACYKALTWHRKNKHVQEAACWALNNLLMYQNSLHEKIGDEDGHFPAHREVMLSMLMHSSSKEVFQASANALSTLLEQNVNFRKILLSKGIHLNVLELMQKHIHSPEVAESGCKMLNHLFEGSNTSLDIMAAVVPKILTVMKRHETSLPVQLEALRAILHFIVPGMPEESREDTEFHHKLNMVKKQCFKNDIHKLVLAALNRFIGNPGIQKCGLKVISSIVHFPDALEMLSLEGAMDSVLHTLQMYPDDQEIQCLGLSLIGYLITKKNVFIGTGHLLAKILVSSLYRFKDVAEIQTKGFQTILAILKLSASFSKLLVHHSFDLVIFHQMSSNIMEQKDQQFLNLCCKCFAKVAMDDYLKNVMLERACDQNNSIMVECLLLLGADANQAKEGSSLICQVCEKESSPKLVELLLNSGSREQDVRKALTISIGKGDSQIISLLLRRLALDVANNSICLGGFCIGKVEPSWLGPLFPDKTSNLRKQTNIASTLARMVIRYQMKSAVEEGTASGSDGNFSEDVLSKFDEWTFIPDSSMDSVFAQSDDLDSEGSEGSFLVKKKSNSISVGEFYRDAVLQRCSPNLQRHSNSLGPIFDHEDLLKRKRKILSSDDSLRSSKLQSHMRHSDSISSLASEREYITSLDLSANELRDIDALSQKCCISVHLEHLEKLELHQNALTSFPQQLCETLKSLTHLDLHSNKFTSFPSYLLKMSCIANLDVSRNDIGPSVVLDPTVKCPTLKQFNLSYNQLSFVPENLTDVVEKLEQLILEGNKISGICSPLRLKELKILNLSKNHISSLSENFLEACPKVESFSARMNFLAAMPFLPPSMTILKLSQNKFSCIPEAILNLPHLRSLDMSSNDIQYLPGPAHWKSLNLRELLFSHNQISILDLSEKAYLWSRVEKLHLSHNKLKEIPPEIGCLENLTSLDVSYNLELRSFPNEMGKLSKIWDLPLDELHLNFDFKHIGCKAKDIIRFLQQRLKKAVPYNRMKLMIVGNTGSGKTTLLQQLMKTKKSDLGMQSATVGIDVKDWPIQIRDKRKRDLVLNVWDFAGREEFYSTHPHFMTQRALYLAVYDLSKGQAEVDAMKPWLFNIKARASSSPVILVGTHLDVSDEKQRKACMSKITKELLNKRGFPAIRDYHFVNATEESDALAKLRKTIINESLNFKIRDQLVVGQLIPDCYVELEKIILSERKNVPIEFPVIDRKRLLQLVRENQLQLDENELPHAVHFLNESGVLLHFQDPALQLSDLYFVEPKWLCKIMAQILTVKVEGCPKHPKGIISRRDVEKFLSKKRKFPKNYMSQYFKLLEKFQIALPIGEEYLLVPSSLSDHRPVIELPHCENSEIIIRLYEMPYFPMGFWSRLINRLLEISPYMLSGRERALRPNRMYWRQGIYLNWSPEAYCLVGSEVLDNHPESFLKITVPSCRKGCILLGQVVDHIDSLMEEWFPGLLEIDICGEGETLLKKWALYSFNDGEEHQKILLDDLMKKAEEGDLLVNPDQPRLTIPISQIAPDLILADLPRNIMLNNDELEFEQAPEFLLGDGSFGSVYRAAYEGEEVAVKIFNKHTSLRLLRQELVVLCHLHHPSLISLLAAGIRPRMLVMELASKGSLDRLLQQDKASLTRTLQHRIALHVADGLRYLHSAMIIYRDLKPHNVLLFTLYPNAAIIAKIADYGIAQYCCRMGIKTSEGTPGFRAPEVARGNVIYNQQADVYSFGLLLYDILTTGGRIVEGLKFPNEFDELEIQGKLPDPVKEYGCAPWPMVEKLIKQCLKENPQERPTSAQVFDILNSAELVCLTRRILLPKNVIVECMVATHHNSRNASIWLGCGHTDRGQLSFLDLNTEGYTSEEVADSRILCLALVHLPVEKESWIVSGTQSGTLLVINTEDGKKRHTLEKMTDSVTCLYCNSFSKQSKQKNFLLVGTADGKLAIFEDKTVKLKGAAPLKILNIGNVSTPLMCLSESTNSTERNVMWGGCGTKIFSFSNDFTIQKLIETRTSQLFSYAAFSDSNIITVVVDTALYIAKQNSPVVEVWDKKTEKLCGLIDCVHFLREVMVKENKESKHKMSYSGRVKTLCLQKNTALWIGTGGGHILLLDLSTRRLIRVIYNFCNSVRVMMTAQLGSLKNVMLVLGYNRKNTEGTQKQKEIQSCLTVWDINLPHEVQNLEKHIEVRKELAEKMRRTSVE
T1 sequence (Q5S007 whole entry): as above

As to `CCOc1ncccc1NC(=O)Cc1nc2cnc3ccc(C#N)cc3c2n1[C@@H]1CCO[C@H](C)C1` [Compound 275, N-(2-ethoxy-3-pyridyl){3-[(2R,4R)-2-methyltetrahydro-2H-pyran-4-yl]-12-cyano-3,5,8-triazatricyclo[7.4.0.0^2,6]trideca-1,4,6,8,10,12-hexaen-4-yl}acetamide], the IC50 against LRRK2 wild type enzyme was found to be 0.478 nM; in assay [1], 2.41 nM.
In the case of `C[C@@H]1C[C@H](n2c(CNc3ncco3)nc3cnc4ccc(C#N)cc4c32)CCO1` [Compound 11, 1-[(2R,4R)-2-methyloxan-4-yl]-2-{[(1,3-oxazol-2-yl)amino]methyl}-1H-imidazo[4,5-c]quinoline-8-carbonitrile], the IC50 against LRRK2 wild type enzyme worked out at 4.23 nM; in assay [1] it was 609 nM.
Consider `Cc1cnn(C)c1NC(=O)Cc1nc2cnc3ccc(C#N)cc3c2n1[C@@H]1CCO[C@H](C)C1` [Compound 350, N-(1-methyl-4-methyl-5-pyrazolyl){3-[(2R,4R)-2-methyltetrahydro-2H-pyran-4-yl]-12-cyano-3,5,8-triazatricyclo[7.4.0.0^2,6]trideca-1(9),2(6),4,7,10,12-hexaen-4-yl}acetamide], for which the values for the half-maximal inhibitory concentration (IC50) (at LRRK2 wild type enzyme; in assay [1]) were 0.487 nM and 15.4 nM, respectively.
With `C[C@@H]1C[C@H](n2c(CC(=O)NC[C@@H]3CCOC3)nc3cnc4ccc(C#N)cc4c32)CCO1` [Compound 173, 2-{8-cyano-1-[(2R,4R)-2-methyloxan-4-yl]-1H-imidazo[4,5-c]quinolin-2-yl}-N-{[(3S)-oxolan-3-yl]methyl}acetamide], the values for the IC50 (against LRRK2 wild type enzyme; in assay [1]) were 0.413 nM and 38.1 nM, respectively.
With `C[C@@H]1C[C@H](n2c(CC(=O)NCC(C)(C)CO)nc3cnc4ccc(C#N)cc4c32)CCO1` [Compound 241, N-(3-hydroxy-2,2-dimethylpropyl){3-[(2R,4R)-2-methyltetrahydro-2H-pyran-4-yl]-12-cyano-3,5,8-triazatricyclo[7.4.0.0^2,6]trideca-1(9),2(6),4,7,10,12-hexaen-4-yl}acetamide], the figures for the IC50 (against LRRK2 wild type enzyme; in assay [1]) were 0.991 nM and 77.6 nM, respectively.
With `C[C@@H]1C[C@H](n2c([C@H]3CCN(S(=O)(=O)C4CC4)C3)nc3cnc4ccc(C#N)cc4c32)CCO1` [Compound 25, 2-[(3S)-1-(cyclopropanesulfonyl)pyrrolidin-3-yl]-1-[(2R,4R)-2-methyloxan-4-yl]-1H-imidazo[4,5-c]quinoline-8-carbonitrile], the 50% inhibitory concentration (IC50) is 6.13 nM against LRRK2 wild type enzyme and 563 nM in assay [1].
Regarding `C[C@@H]1C[C@H](n2c(CC(=O)Nc3cnoc3)nc3cnc4ccc(C#N)cc4c32)CCO1` [Compound 180, 2-{8-cyano-1-[(2R,4R)-2-methyloxan-4-yl]-1H-imidazo[4,5-c]quinolin-2-yl}-N-(1,2-oxazol-4-yl)acetamide], the 50% inhibitory concentration (IC50) turned out to be 0.432 nM at LRRK2 wild type enzyme and 21.6 nM in assay [1].
The like results for `C[C@@H]1C[C@H](n2c(CC(=O)NC3CCOc4cccnc43)nc3cnc4ccc(Cl)cc4c32)CCO1` (stereo partly drawn) [Compound 362, N-(3,4-dihydro-2H-1-oxa-5-azanaphth-4-yl){3-[(2R,4R)-2-methyltetrahydro-2H-pyran-4-yl]-12-chloro-3,5,8-triazatricyclo[7.4.0.0^2,6]trideca-1(9),2(6),4,7,10,12-hexaen-4-yl}acetamide] were, in that order, 0.553 nM and 10.5 nM.
`C[C@@H]1C[C@H](n2c(CC(=O)N[C@@H]3C[C@H]3F)nc3cnc4ccc(C#N)cc4c32)CCO1` [Compound 246, N-[(1R,2R)-2-fluorocyclopropyl]{3-[(2R,4R)-2-methyltetrahydro-2H-pyran-4-yl]-12-cyano-3,5,8-triazatricyclo[7.4.0.0^2,6]trideca-1(13),2(6),4,7,9,11-hexaen-4-yl}acetamide]: the half-inhibitory concentration (IC50) against LRRK2 wild type enzyme stood at 1.1 nM; in assay [1], 52.2 nM.
On to `C[C@@H]1C[C@H](n2c(CN)nc3cnc4ccc(C#N)cc4c32)CCO1` [Compound 32, 2-(aminomethyl)-1-[(2R,4R)-2-methyloxan-4-yl]-1H-imidazo[4,5-c]quinoline-8-carbonitrile], for which the IC50 against LRRK2 wild type enzyme stood at 5.55 nM; in assay [1], 425 nM.
Taken in the same sequence, the figures for `C[C@@H]1C[C@H](n2c(CC(=O)Nc3ccn(C)c(=O)c3)nc3cnc4ccc(Cl)cc4c32)CCO1` [Compound 212, N-(1-methyl-2-oxo-1,2-dihydro-4-pyridyl){3-[(2R,4R)-2-methyltetrahydro-2H-pyran-4-yl]-12-chloro-3,5,8-triazatricyclo[7.4.0.0^2,6]trideca-1,4,6,8,10,12-hexaen-4-yl}acetamide] were 0.331 nM and 11.5 nM.
On to `C[C@@H]1C[C@H](n2c(CC(=O)N[C@H]3CCOC3)nc3cnc4ccc(Cl)cc4c32)CCO1` [Compound 147, 2-{8-chloro-1-[(2R,4R)-2-methyloxan-4-yl]-1H-imidazo[4,5-c]quinolin-2-yl}-N-[(3S)-oxolan-3-yl]acetamide], for which the IC50 at LRRK2 wild type enzyme worked out at 0.386 nM; in assay [1] it was 10 nM.
With `COc1cc(F)c(NC(=O)Cc2nc3cnc4ccc(C#N)cc4c3n2[C@@H]2CCO[C@H](C)C2)cn1` [Compound 235, N-(4-fluoro-6-methoxy-3-pyridyl){3-[(2R,4R)-2-methyltetrahydro-2H-pyran-4-yl]-12-cyano-3,5,8-triazatricyclo[7.4.0.0^2,6]trideca-1,4,6,8,10,12-hexaen-4-yl}acetamide], the 50% inhibitory concentration (IC50) is 0.458 nM at LRRK2 wild type enzyme and 9.9 nM in assay [1].
Consider `CC(=O)NCc1nc2cnc3ccc(C#N)cc3c2n1[C@@H]1CCO[C@H](C)C1` [Compound 23, N-({8-cyano-1-[(2R,4R)-2-methyloxan-4-yl]-1H-imidazo[4,5-c]quinolin-2-yl}methyl)acetamide], for which the IC50 amounted to 4.74 nM against LRRK2 wild type enzyme and 659 nM in assay [1].
`C[C@@H]1C[C@H](n2c(C3CC(=O)N(Cc4cnn(C)c4)C3)nc3cnc4ccc(C#N)cc4c32)CCO1` (mixture of isomers) [Compound 58, 2-[(3RS)-1-[(1-methyl-1H-pyrazol-4-yl)methyl]-5-oxopyrrolidin-3-yl]-1-[(2R,4R)-2-methyloxan-4-yl]-1H-imidazo[4,5-c]quinoline-8-carbonitrile]: the half-inhibitory concentration (IC50) came out at 1.6 nM on LRRK2 wild type enzyme and 931 nM in assay [1].
As for `C[C@@H]1C[C@H](n2c(C3CC(=O)N(c4cnn(CCO)c4)C3)nc3cnc4ccc(C#N)cc4c32)CCO1` (stereo partly drawn) [Compound 123, 2-{1-[1-(2-hydroxyethyl)-1H-pyrazol-4-yl]-5-oxopyrrolidin-3-yl}-1-[(2R,4R)-2-methyloxan-4-yl]-1H-imidazo[4,5-c]quinoline-8-carbonitrile], the half-maximal inhibitory concentration (IC50) at LRRK2 wild type enzyme came out at 1.41 nM; in assay [1], 4050 nM.
For `C[C@@H]1C[C@H](n2c(CNC(=O)c3ccccn3)nc3cnc4ccc(C#N)cc4c32)CCO1` [Compound 19, N-({8-cyano-1-[(2R,4R)-2-methyloxan-4-yl]-1H-imidazo[4,5-c]quinolin-2-yl}methyl)pyridine-2-carboxamide], the half-inhibitory concentration (IC50) was found to be 0.591 nM on LRRK2 wild type enzyme and 22.9 nM in assay [1].
For the molecule `N#Cc1ccc2ncc3nc(CC(=O)NCC4CC4)n(C4CCOCC4)c3c2c1` [Compound 343, N-cyclopropylmethyl{12-cyano-3-(tetrahydro-2H-pyran-4-yl)-3,5,8-triazatricyclo[7.4.0.0^2,6]trideca-1,4,6,8,10,12-hexaen-4-yl}acetamide], the concentration for half-maximal inhibition (IC50) came to 2.81 nM on LRRK2 wild type enzyme and 135 nM in assay [1].
As for `C[C@@H]1C[C@H](n2c(CC(=O)N[C@@H]3C[C@H]3c3cccnc3)nc3cnc4ccc(C#N)cc4c32)CCO1` [Compound 348, N-[(1R,2S)-2-(3-pyridyl)cyclopropyl]{3-[(2R,4R)-2-methyltetrahydro-2H-pyran-4-yl]-12-cyano-3,5,8-triazatricyclo[7.4.0.0^2,6]trideca-1(9),2(6),4,7,10,12-hexaen-4-yl}acetamide], the IC50 on LRRK2 wild type enzyme came to 0.724 nM; in assay [1], 32.3 nM.
As to `C[C@@H]1C[C@H](n2c(CC(=O)N[C@@H](C)C3CC3)nc3cnc4ccc(C#N)cc4c32)CCO1` [Compound 8, 2-{8-cyano-1-[(2R,4R)-2-methyloxan-4-yl]-1H-imidazo[4,5-c]quinolin-2-yl}-N-[(1S)-1-cyclopropylethyl]acetamide], the IC50 on LRRK2 wild type enzyme was 1.49 nM; in assay [1], 118 nM.
Taken in the same sequence, the figures for `C[C@@H]1C[C@H](n2c(CC(=O)Nc3ccc(C(F)(F)F)n(C)c3=O)nc3cnc4ccc(C#N)cc4c32)CCO1` [Compound 221, N-[1-methyl-2-oxo-6-(trifluoromethyl)-1,2-dihydro-3-pyridyl]{3-[(2R,4R)-2-methyltetrahydro-2H-pyran-4-yl]-12-cyano-3,5,8-triazatricyclo[7.4.0.0^2,6]trideca-1,4,6,8,10,12-hexaen-4-yl}acetamide] were 0.526 nM and 5.77 nM.
As for `Cc1cnc(NC(=O)Cc2nc3cnc4ccc(C#N)cc4c3n2[C@@H]2CCO[C@H](C)C2)cn1` [Compound 315, N-(5-methyl-2-pyrazinyl){3-[(2R,4R)-2-methyltetrahydro-2H-pyran-4-yl]-12-cyano-3,5,8-triazatricyclo[7.4.0.0^2,6]trideca-1(9),2(6),4,7,10,12-hexaen-4-yl}acetamide], the results for the IC50 (against LRRK2 wild type enzyme; in assay [1]) were 0.471 nM and 2.52 nM, respectively.
For `C[C@@H]1C[C@H](n2c(CC(=O)NC3CC=CC3)nc3cnc4ccc(C#N)cc4c32)CCO1` [Compound 302, N-(3-cyclopenten-1-yl){3-[(2R,4R)-2-methyltetrahydro-2H-pyran-4-yl]-12-cyano-3,5,8-triazatricyclo[7.4.0.0^2,6]trideca-1,4,6,8,10,12-hexaen-4-yl}acetamide], the concentration for half-maximal inhibition (IC50) came out at 0.483 nM against LRRK2 wild type enzyme and 10 nM in assay [1].

A word on the IC50: it is the midpoint of a concentration-inhibition curve.
